Results on one compound are retold here after patent publication US8338428B2, “Methods for administering aripiprazole” (Alkermes, Inc., priority 2003, dated 2012).

A short description of the series: Pharmacokinetic evaluation of aripiprazole in rats following single subcutaneous doses of aripiprazole formulations. It counts as in vivo, Sprague-Dawley rats. As to conditions: rat, single SC injection of 10, 20 or 30 mg bulk drug in 0.75 mL diluent (3% CMC, 0.1% Tween 20, 0.9% NaCl); plasma 2 h to 28 d; versus microspheres with 30% or 50% load.

“Also recorded” adds a separate entry of the source.

Procedure: Experimental: Pharmacokinetic Evaluation of Aripiprazole in Rats Following Administration of Single Subcutaneous Doses of Aripiprazole Formulations. Species and Strain: Sprague-Dawley rats. Male; 450 +/−50 grams. Study Groups: 5 Groups, 15 subjects • Group A: three rats injected once SC with 10 mg of Aripiprazole. • Group B: three rats injected once SC with 20 mg of Aripiprazole. • Group C: three rats injected once SC with 30 mg of Aripiprazole. • Group D: three rats injected once SC with ˜67 mg of microparticles. • Group E: three rats injected once SC with ˜40 mg of microparticles. […] Route of Injection: Subcutaneous (SC) injection into the interscapular region. Injection Vehicle: Aqueous diluent containing 3% CMC (low viscosity), 0.1% Tween 20, in 0.9% NaCl and water. Dose Volumes: Suspensions were formulated as follows: • Group A: 10 mg powder in 0.75 mL Diluent • Group B: 20 mg powder in 0.75 mL Diluent • Group C: 30 mg powder in 0.75 mL Diluent • Group D: ˜67 mg microparticles in 0.75 mL Diluent • Group E: 40 mg microparticles in 0.75 mL Diluent Blood Collection: Blood samples were collected via a lateral tail vein after anesthesia with Halothane. A syringe without an anticoagulant was used for the blood collection, then the whole blood was transferred to tubes containing K2 EDTA and mixing beads (MICROTAINER®; MFG# BD365974). […]

On to `O=C1CCc2ccc(OCCCCN3CCN(c4cccc(Cl)c4Cl)CC3)cc2N1` [aripiprazole, Aripiprazole], for which the “plasma release profile of SC bolus injection compared with aripiprazole-containing PLGA microspheres” value is “substantially the same; also recorded: extended release profile similar to that obtained by the injection of a poly lactide-co-glycolide microsphere formulation”.
